Source: article PMC8880039, “Kinetic and Molecular Docking Studies to Determine the Effect of Inhibitors on the Activity and Structure of Fused G6PD::6PGL Protein from Trichomonas vaginalis” (Molecules, 2022)

Assays:
Assay type in all cases: biochemical
[1] = biological target: T1, fused TvG6PD::6PGL enzyme (Trichomonas vaginalis, UniProt A2EC78); experiment: Determination of inhibition type (double reciprocal plots); settings: Lineweaver–Burk; for inhibition type for G6P substrate: G6P varied, NADP+ saturating; for inhibition type for NADP+ substrate: NADP+ varied, G6P saturating
T1 sequence (A2EC78 entry or part of it): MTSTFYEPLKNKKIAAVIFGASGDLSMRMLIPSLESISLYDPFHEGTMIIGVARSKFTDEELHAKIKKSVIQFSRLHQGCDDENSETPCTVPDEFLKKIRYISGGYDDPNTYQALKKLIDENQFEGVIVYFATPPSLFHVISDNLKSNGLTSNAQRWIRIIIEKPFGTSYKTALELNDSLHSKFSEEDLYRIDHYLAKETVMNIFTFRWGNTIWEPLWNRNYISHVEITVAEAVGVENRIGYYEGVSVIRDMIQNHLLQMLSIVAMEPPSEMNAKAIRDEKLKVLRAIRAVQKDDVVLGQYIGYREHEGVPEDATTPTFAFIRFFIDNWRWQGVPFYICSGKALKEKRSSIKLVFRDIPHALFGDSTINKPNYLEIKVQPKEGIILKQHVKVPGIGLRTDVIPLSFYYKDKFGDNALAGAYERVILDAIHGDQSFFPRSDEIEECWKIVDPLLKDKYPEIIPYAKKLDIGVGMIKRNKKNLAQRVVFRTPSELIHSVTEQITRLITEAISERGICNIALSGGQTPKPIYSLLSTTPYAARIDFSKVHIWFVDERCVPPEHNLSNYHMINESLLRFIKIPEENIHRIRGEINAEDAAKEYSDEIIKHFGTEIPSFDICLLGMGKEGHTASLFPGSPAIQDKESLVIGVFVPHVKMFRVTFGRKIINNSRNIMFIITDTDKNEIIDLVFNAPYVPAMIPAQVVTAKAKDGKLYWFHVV
From the text: Figure 4 Determination of inhibition type of selected compounds. Lineweaver–Burk plots for the JMM-3, CNZ-3, CNZ-17, and MCC-7 compounds with G6P (A,C,E,G) or NADP^+ (B,D,F,H) substrates. The data represent the mean ± of three independent experiments, and standard errors were lower than 5%. […] Only the inhibition type (a class) is printed as a plot label, and it is uncertain whether that counts as a result. The concentrations in the plot legends stand alone and were left out.
To determine the inhibition mechanism of the four selected hit compounds over the T. vaginalis-fused G6PD::6PGL protein, we monitored the initial velocities in the presence of two fixed concentrations of each of the inhibitory compounds. The initial velocities were determined at different substrate concentrations (from 0 to 140 µM). […] Subsequently, the initial velocities for each physiological substrate (G6P and NADP^+) were analyzed using the double reciprocal plot method.

[2] = biological target: T1, fused TvG6PD::6PGL enzyme; experiment: Orthogonal assay: IC50 by residual activity of TvG6PD::6PGL
Description: Figure 2 Inactivation of the TvG6PD::6PGL enzyme with CNZ-3, MCC-7, JMM-3, and CNZ-17. The protein was adjusted at 0.2 mg/mL and incubated with increasing concentrations of each compound (0–800 μM) for 2 h at 37 °C. The IC50 values were determined by plotting the residual activity of the fused TvG6PD::6PGL enzyme versus compound concentrations. The assays were carried out in triplicate, and the data represent the mean ± standard error.
The compound concentration at which the enzyme loses 50% of its initial activity (IC50) was determined according to Hernández-Ochoa et al.. The G6PD::6PGL protein was adjusted to a 0.2 mg/mL concentration and incubated for 2 h at 37 °C, with increasing concentrations from 0 to 800 µM of the selected synthetic hit compounds. Then, the residual activity was measured, as mentioned above.

[3] = biological target: T1, fused TvG6PD::6PGL enzyme; experiment: Time-course inactivation, second-order rate constant (k2); settings: read-out: second-order rate constant of inactivation (k2)
Description: To determine the enzyme–inhibitor complex formation rate for each synthetic compound, we first calculated the pseudo-first-order inactivation constants (k1) by measuring the initial velocities at five fixed concentrations, at intervals between 0 and 120 min. […] We observed single-exponential decays of time-course inactivation for all the compounds examined in this study (Figure 3A,C,E,G). Additionally, as the synthetic compounds’ concentrations increased, the enzyme lost catalytic activity in a shorter incubation time; in contrast, the enzymatic activity of enzymes without compounds remained intact. The k1 values for each compound were calculated and plotted against their concentrations, and a linear behavior was obtained and fitted with the linear equation (Figure 3B,D,F,H). The calculated k2 values for JMM-3, CNZ-3, CNZ-17, and MCC-7 were: 0.33, 0.66, 0.38, and 0.26 M^−1 s^−1, respectively. It is important to mention that CNZ-3 formed the enzyme–inhibitor complex faster (k2 value of 0.66 M^−1 s^−1), regarding the CNZ-17 compound. This difference in the affinity to form the enzyme–inhibitor complex may be due to the p-chlorine moiety present in CNZ-3, unlike CNZ-17, which has a methoxy group in the same position.
Figure 3 Inactivation of fused G6PD::6PGL enzyme by chemical compounds. […] We obtained second-order rate constant values of inactivation (k2) of each of (B) JMM-3, (D) CNZ-3, (F) CNZ-17, and (H) CCM-7 by fitting the calculated k1 value versus the concentration of the compound. […] TEXT PRINTED IN THE PICTURE: (B) JMM-3: k2= 0.33 (M^-1* s^-1) | (D) CNZ-3: k2 = 0.66 (M^-1* s^-1) | (F) CNZ-17: k2 = 0.38 (M^-1* s^-1) | (H) MCC-7: k2 = 0.26 (M^-1* s^-1) DOUBTS OF THE COPYIST ABOUT THIS PICTURE: CNZ-3, k2: small print, 0.66 could be 0.68 or 0.86 / CNZ-17, k2: small print, 0.38 could be 0.36 or 0.88 / MCC-7, k2: small print, 0.26 could be 0.28; subscript of k not clearly readable / Panels D, F, H: the sign between M^-1 and s^-1 (asterisk) is not clearly readable
Second-order rate constants of inactivation (k2) were used to determine the inactivation rate of a chemical compound and the formation of the enzyme–inhibitor complex. Therefore, pseudo-first-order rate constants (k1) were determined for the recombinant G6PD::6PGL, adjusted at 0.2 mg/mL, and incubated with four different fixed concentrations of each compound at 37 °C. At the indicated times, a sample was withdrawn, and the residual activity was measured. First, we calculated the pseudo-first-order rate constants (k1) by fitting the residual activities data using a monoexponential decay equation: AR=A0 e^−kt , where AR is the residual activity at time t, A0 is the activity at the initial time, and k is the pseudo-first-order inactivation constant (min^−1). […]

[4] = biological target: recombinant human G6PD (HsG6PD) (Homo sapiens, UniProt P11413); experiment: Inhibition of recombinant human G6PD by the selected compounds; settings: compound 400 μM
Sequence of recombinant human G6PD (HsG6PD) (P11413 whole entry, the tested form may be a part): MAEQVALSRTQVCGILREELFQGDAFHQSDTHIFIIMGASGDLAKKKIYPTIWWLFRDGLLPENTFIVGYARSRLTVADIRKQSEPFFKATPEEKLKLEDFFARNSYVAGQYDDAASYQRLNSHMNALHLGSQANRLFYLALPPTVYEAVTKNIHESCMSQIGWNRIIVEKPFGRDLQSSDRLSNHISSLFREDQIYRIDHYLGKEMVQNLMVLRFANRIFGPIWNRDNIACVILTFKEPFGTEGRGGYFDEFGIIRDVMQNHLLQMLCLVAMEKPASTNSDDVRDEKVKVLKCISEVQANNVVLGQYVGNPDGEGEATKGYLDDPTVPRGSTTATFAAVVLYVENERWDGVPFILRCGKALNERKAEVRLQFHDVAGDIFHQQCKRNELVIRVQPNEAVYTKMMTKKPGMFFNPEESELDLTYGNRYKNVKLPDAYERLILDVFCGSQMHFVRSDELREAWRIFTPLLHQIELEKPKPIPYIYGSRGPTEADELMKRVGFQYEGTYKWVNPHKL
From the text: (§1) Here, we tested an in-house library of 55 compounds with some structural similarity to the previously reported molecules by Preuss et al.. […] In addition, we tested these synthetic compounds as potential recombinant human G6PD (HsG6PD) protein inhibitors. We observed that synthetic compounds, such as JMM-2, CNZ-3, CNZ-7, and CNZ-8, inhibited the fused TvG6PD::6PGL and the HsG6PD enzymes. For example, JMM-2 inhibited both enzymes by 81%, and CNZ-3 inhibited their catalytic activity by around 90%. Conversely, six of them, JMM-3, CNZ-16, CNZ-17, MCC-7, CMC-1, and TDA-5, inhibited the fused TvG6PD::6PGL enzyme activity in a more significant proportion regarding HsG6PD. […] The selective inhibition over the fused TvG6PD::6PGL enzyme may help improve the rational design of new drugs against this parasite without affecting the activity of HsG6PD.

[5] = biological target: T1, fused TvG6PD::6PGL enzyme; experiment: Screening of in-house library for inhibition of fused TvG6PD::6PGL catalytic activity; settings: read-out: G6PD::6PGL Inhibition (%), compound 400 μM, 0.2 mg/mL enzyme, 2 h at 37 °C
From the text: as §1
We tested an in-house library of 55 chemical compounds synthesized in the Medicinal Chemistry Laboratory from Facultad de Farmacia, Universidad Autónoma del Estado de Morelos. In-house libraries are advantageous in the discovery of novel bioactive small molecules. […] Subsequently, the residual activity was measured using a standard reaction mixture (1 mM G6P, 0.2 mM NADP^+, 0.1 mM Tris-HCl, and one mM MgCl2, pH 8.0). […]

Compound	inhibition type for G6P substrate [1]	inhibition type for NADP+ substrate [1]	IC50 [2] [µM]	kinact/KI [3] [M⁻¹ s⁻¹]	inhibition at 400 µM [4] [%]	inhibition at 400 µM [5] [%]
O=C(Nc1ccc(Cl)cc1)Nc1ncc([N+](=O)[O-])s1 [CNZ-3]	noncompetitive-type inhibition	competitive-type inhibition	93	0.66	~90	
COc1ccc(NC(=O)Nc2ncc([N+](=O)[O-])s2)cc1 [CNZ-17]	uncompetitive-type inhibition	uncompetitive-type inhibition	356	0.38	0	> 50
COc1cc(CCC(=O)O)ccc1OCc1ccc(-c2ccccc2C#N)cc1 [JMM-3]	uncompetitive-type inhibition	uncompetitive-type inhibition	155	0.33		> 50
O=C(COc1ccc(/C=C2\SC(=O)NC2=O)cc1)NC1CCN(Cc2ccccc2)CC1 [MCC-7]	non-competitive-type inhibition	uncompetitive type	260	0.26	11	
